Experimental data taken from patent US11814368B2, “Triazine derivatives having virus replication inhibitory activity and pharmaceutical composition comprising the same” (priority 2021, dated 2023).

Tested on: SARS-CoV-2
Test: microbe, parasite or virus in culture
Assay type: cell-based
Settings: Severe acute respiratory syndrome coronavirus 2, 72 h, read-out: 50% SARS-CoV-2 infected cell death inhibitory concentration (EC50); VeroE6/TMPRSS2 cells, SARS-CoV-2, 3 days culture, CellTiter-Glo 2.0

Row | SMILES | EC50 [µM]
1 | CC(C)Oc1ccc(/N=c2\[nH]c(=O)n(Cc3ccc[nH]c3=O)c(=O)n2Cc2ccc(Cl)cc2)cc1F [Patent Document 1 Compound I-0685] | > 50
2 | CC(C)Oc1ccc(/N=c2\[nH]c(=O)n(Cc3ncn[nH]3)c(=O)n2Cc2ccc(Cl)cc2)cc1F [Patent Document 1 Compound I-0679] | > 50
3 | O=C(O)c1ccc(Oc2ccc(/N=c3\[nH]c(=O)n(-c4cccs4)c(=O)n3Cc3ccc(Cl)cc3)cc2)nc1 [Patent Document 2 Compound I-575] | > 50
4 | Cc1nc2ccc(/N=c3\[nH]c(=O)n(C[C@H]4COC(C)(C)O4)c(=O)n3Cc3ccc(Cl)cc3)cc2s1 [Patent Document 1 Compound 1-1603] | > 50
5 | COc1ncccc1Cn1c(=O)[nH]/c(=N\c2ccc(OC(C)C)c(F)c2)n(Cc2ccc(Cl)cc2)c1=O [Patent Document 1 Compound I-0683] | > 50
6 | O=C(O)c1ccc(Oc2ccc(/N=c3\[nH]c(=O)n(-c4ccon4)c(=O)n3Cc3ccc(Cl)cc3)cc2)nc1 [Patent Document 2 Compound I-580] | > 50
7 | Cc1ccc(Cn2c(=O)nc(Nc3cccc(C(F)(F)F)c3)n(Cc3ccc(Cl)c(Cl)c3)c2=O)cc1 [Patent Document 3 Compound 1-066] | > 50

Same assay, conditions: at concentrations up to 50 µM

Row | SMILES | coronavirus replication inhibitory activity
8 | CC(C)Oc1ccc(/N=c2\[nH]c(=O)n(Cc3ccc[nH]c3=O)c(=O)n2Cc2ccc(Cl)cc2)cc1F [Patent Document 1 Compound I-0685] | did not show coronavirus replication inhibitory activity
9 | CC(C)Oc1ccc(/N=c2\[nH]c(=O)n(Cc3ncn[nH]3)c(=O)n2Cc2ccc(Cl)cc2)cc1F [Patent Document 1 Compound I-0679] | did not show coronavirus replication inhibitory activity
10 | O=C(O)c1ccc(Oc2ccc(/N=c3\[nH]c(=O)n(-c4cccs4)c(=O)n3Cc3ccc(Cl)cc3)cc2)nc1 [Patent Document 2 Compound I-575] | did not show coronavirus replication inhibitory activity
11 | Cc1nc2ccc(/N=c3\[nH]c(=O)n(C[C@H]4COC(C)(C)O4)c(=O)n3Cc3ccc(Cl)cc3)cc2s1 [Patent Document 1 Compound 1-1603] | did not show coronavirus replication inhibitory activity
12 | COc1ncccc1Cn1c(=O)[nH]/c(=N\c2ccc(OC(C)C)c(F)c2)n(Cc2ccc(Cl)cc2)c1=O [Patent Document 1 Compound I-0683] | did not show coronavirus replication inhibitory activity
13 | O=C(O)c1ccc(Oc2ccc(/N=c3\[nH]c(=O)n(-c4ccon4)c(=O)n3Cc3ccc(Cl)cc3)cc2)nc1 [Patent Document 2 Compound I-580] | did not show coronavirus replication inhibitory activity
14 | Cc1ccc(Cn2c(=O)nc(Nc3cccc(C(F)(F)F)c3)n(Cc3ccc(Cl)c(Cl)c3)c2=O)cc1 [Patent Document 3 Compound 1-066] | did not show coronavirus replication inhibitory activity
